Laboratory results: PMC8593015 (Scientific Reports, 2021)
Several values for one entry are separate records, joined by “and”; a condition that tells them apart may be missing. Equal entries are not always repeated.

Columns and labels:
M. tb EgtD = biological target: T1, M. tb EgtD (Mycobacterium tuberculosis, UniProt P9WN47); experiment: biochemical
T1 construct: thioredoxin (N, cleaved yes); polyhistidine (N, cleaved yes); made in house; host or cells: E. coli (T7 cells), pET32-derived vector
T1 sequence (P9WN47 1-321): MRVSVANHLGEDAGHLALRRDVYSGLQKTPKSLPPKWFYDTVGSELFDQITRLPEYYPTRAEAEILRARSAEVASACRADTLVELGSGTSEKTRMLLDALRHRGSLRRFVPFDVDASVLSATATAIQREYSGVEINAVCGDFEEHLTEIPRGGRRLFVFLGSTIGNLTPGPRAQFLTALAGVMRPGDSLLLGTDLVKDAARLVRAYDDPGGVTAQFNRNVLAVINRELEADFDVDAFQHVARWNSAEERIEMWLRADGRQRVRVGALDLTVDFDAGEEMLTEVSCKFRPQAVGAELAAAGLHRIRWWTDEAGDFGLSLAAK

[1] = test system: Mycobacterium marinum (M. marinum); conditions: cited from earlier work
M. tb = test system: M. tb; design: method as in PMID 22100163, PMID 24586159, PMID 22988030; conditions: macrophage cells and infected mice; cited from earlier work

Compound	EC50 (M. tb EgtD)	further results
CS(=O)(=O)c1ccc(-c2nc(-c3ccc(F)cc3)c(-c3ccncc3)[nH]2)cc1 [Cay-10571, reference compound]	< 20 µM and 7 µM	–
O=C(O)CNc1cccc(C(=O)NCCc2c[nH]cn2)c1 [HD1]	89 ± 19 µM	–
O=C(O)C(Cc1cnc[nH]1)n1cccc1 (centres unmarked) [HD2]	33 ± 3 µM	–
O=C(O)C(Cc1cnc[nH]1)NC(=S)NCc1ccccc1 (centres unmarked) [HD3]	47 ± 5 µM	–
CCOc1ccccc1CN(CC)C(=O)[C@H](N)Cc1c[nH]cn1 [HD4]	25 ± 4 µM	–
CN(Cc1ccc(Oc2ccccc2)cc1)C(=O)[C@H](N)Cc1c[nH]cn1 [HD5]	30 ± 3 µM	–
O=C(N[C@@H](Cc1c[nH]cn1)C(=O)O)C1CC=CC1 [HD6]	85 ± 19 µM	fold decrease in inhibitory activity versus HD2 and HD3 (M. tb EgtD; ratio of EC50 values): 1.5–2.5 fold
CN(C)CCN(Cc1cnc[nH]1)C(=O)CN(C)Cc1ccccc1 [HD7]	85 ± 12 µM	–
Cc1ccc(C(C)C(=O)N(CCN(C)C)Cc2cnc[nH]2)cc1 (centres unmarked) [HD8]	160 ± 60 µM	–
CCOc1ccccc1OCCN(C)Cc1cnc[nH]1 [HD9]	36 ± 4 µM	–
Cc1cccc(C(C(=O)NCCc2c[nH]cn2)N(C)C)c1 (centres unmarked) [HD10]	32 ± 4 µM	–
Cc1ccc(NC(=O)c2ccc(CN3CCN(C)CC3)cc2)cc1Nc1nccc(-c2cccnc2)n1 [Imatinib]	–	effect of combination with Rifampicin ([1]; M. marinum-infected macrophage cells, Imatinib and Rifampicin): synergistic effect; intracellular replication of M. marinum ([1]; macrophage cells and infected mice): decrease in the intracellular replication; intracellular replication of M. tb (M. tb): decrease in the intracellular replication
O=c1cc(N2CCOCC2)oc2c1ccc1ccccc12 [NU-7026, reference compound]	< 20 µM and 5.4 µM	–
Cc1cc(C(C)Nc2ccccc2)c2nc(N3CCOCC3)cc(=O)n2c1 (centres unmarked) [TGX-221, reference compound]	< 20 µM and 15.2 µM	–
